Measurements published in PubChem BioAssay AID1963853 (Molecular Pharmacology Branch, DTP, NCI, 2024).

System: 266295-075-R-J1-PDC spheroid viability
Experiment: Anticancer human tumor 266295-075-R-J1-PDC patient-derived head and neck squamous carcinoma cell line growth inhibition [POLQ]
Settings: spheroids with HUVEC and MSC; for IC50: curve of first compound; for viability, T/C: stronger effect = lower value
In short: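 Complex spheroid viability model combining PDC tumour cells with endothelial (HUVEC) and MSC stromal cells. Novobiocin, ART-558 or RP6685 were tested singly and in combination with standard and investigational anticancer drugs. Each was titrated in half-log steps from near clinical Cmax, or from 10 microM where Cmax was unknown.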

[1] = second compound 0.0316 µM, first compound 0.0316 µM
[2] = second compound 0.0316 µM, first compound 0.1 µM
[3] = second compound 0.0316 µM, first compound 0.316 µM
[4] = second compound 0.0316 µM, first compound 1 µM
[5] = second compound 0.0316 µM, first compound 3.16 µM
[6] = second compound 0.0316 µM, first compound 10 µM
[7] = second compound 0.1 µM, first compound 0.0316 µM
[8] = second compound 0.1 µM, first compound 0.1 µM
[9] = second compound 0.1 µM, first compound 0.316 µM
[10] = second compound 0.1 µM, first compound 1 µM
[11] = second compound 0.1 µM, first compound 3.16 µM
[12] = second compound 0.1 µM, first compound 10 µM
[13] = second compound 0.316 µM, first compound 0.0316 µM
[14] = second compound 0.316 µM, first compound 0.1 µM
[15] = second compound 0.316 µM, first compound 0.316 µM
[16] = second compound 0.316 µM, first compound 1 µM
[17] = second compound 0.316 µM, first compound 3.16 µM
[18] = second compound 0.316 µM, first compound 10 µM
[19] = second compound 1 µM, first compound 0.0316 µM
[20] = second compound 1 µM, first compound 0.1 µM
[21] = second compound 1 µM, first compound 0.316 µM
[22] = second compound 1 µM, first compound 1 µM
[23] = second compound 1 µM, first compound 3.16 µM
[24] = second compound 1 µM, first compound 10 µM
[25] = second compound 3.16 µM, first compound 0.0316 µM
[26] = second compound 3.16 µM, first compound 0.1 µM
[27] = second compound 3.16 µM, first compound 0.316 µM
[28] = second compound 3.16 µM, first compound 1 µM
[29] = second compound 3.16 µM, first compound 3.16 µM
[30] = second compound 3.16 µM, first compound 10 µM
[31] = second compound 10 µM, first compound 0.0316 µM
[32] = second compound 10 µM, first compound 0.1 µM
[33] = second compound 10 µM, first compound 0.316 µM
[34] = second compound 10 µM, first compound 1 µM
[35] = second compound 10 µM, first compound 3.16 µM
[36] = second compound 10 µM, first compound 10 µM
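Further: spheroids exposed to compounds for seven days before readout.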

In the case of `COc1cccc2c1C(=O)c1c(O)c3c(c(O)c1C2=O)CC(O)(C(=O)CO)CC3OC1CC(N)C(O)C(C)O1` (stereo not drawn) + COC1C(OC(N)=O)C(O)C(Oc2ccc3c(O)c(NC(=O)c4ccc(O)c(CC=C(C)C)c4)c(=O)oc3c2C)OC1(C)C, the IC50 (second compound 0.0316 µM) is reported as 3.17 µM, the IC50 (second compound 0.1 µM) is reported as 2.56 µM and the IC50 (second compound 0.316 µM) is reported as 3.45 µM. It also gave an IC50 (second compound 1 µM) of 2.64 µM, an IC50 (second compound 3.16 µM) of 2.16 µM and an IC50 (second compound 10 µM) of 3.72 µM. The viability, T/C [1] was 95.5%, the viability, T/C [2] was 104% and the viability, T/C [3] was 82.4%. For the same molecule, the viability, T/C [4] was 75.8%, the viability, T/C [5] was 51.8% and the viability, T/C [6] was 2.47%. The viability, T/C [7] was 107%, the viability, T/C [8] was 96% and the viability, T/C [9] was 74.2%. It also gave a viability, T/C [10] of 74.7%, a viability, T/C [11] of 50.4% and a viability, T/C [12] of 2.16%. It also gave a viability, T/C [13] of 102%, a viability, T/C [14] of 96% and a viability, T/C [15] of 76.7%. It also gave a viability, T/C [16] of 74.8%, a viability, T/C [17] of 61.4% and a viability, T/C [18] of 2.49%. The viability, T/C [19] was 103%, the viability, T/C [20] was 91.4% and the viability, T/C [21] was 77%. The viability, T/C [22] was 64.6%, the viability, T/C [23] was 57.5% and the viability, T/C [24] was 2.7%. It also gave a viability, T/C [25] of 98.8%, a viability, T/C [26] of 90.4% and a viability, T/C [27] of 78.4%. The viability, T/C [28] was 68.7%, the viability, T/C [29] was 42.3% and the viability, T/C [30] was 2.41%. For the same molecule, the viability, T/C [31] was 99.5%, the viability, T/C [32] was 83.1% and the viability, T/C [33] was 83.1%. For the same molecule, the viability, T/C [34] was 75%, the viability, T/C [35] was 62.2% and the viability, T/C [36] was 1.87%.
Work on `CCCS(=O)(=O)Nc1ccc(F)c(C(=O)c2c[nH]c3ncc(-c4ccc(Cl)cc4)cc23)c1F` + Nc1ccc(C#CCN(C(=O)Cc2ncc(C(F)(F)F)cc2C(F)(F)F)c2ccc(F)cc2)nn1 yielded an IC50 (second compound 0.0316 µM) of over 10 µM, an IC50 (second compound 0.1 µM) of over 10 µM and an IC50 (second compound 0.316 µM) of over 10 µM. For the same molecule, the IC50 (second compound 1 µM) was over 10 µM, the IC50 (second compound 3.16 µM) was over 10 µM and the IC50 (second compound 10 µM) was over 10 µM. It also gave a viability, T/C [1] of 97.9%, a viability, T/C [2] of 115% and a viability, T/C [3] of 115%. For the same molecule, the viability, T/C [4] was 102%, the viability, T/C [5] was 158% and the viability, T/C [6] was 160%. It also gave a viability, T/C [7] of 101%, a viability, T/C [8] of 105% and a viability, T/C [9] of 99.2%. The viability, T/C [10] was 116%, the viability, T/C [11] was 156% and the viability, T/C [12] was 145%. For the same molecule, the viability, T/C [13] was 102%, the viability, T/C [14] was 103% and the viability, T/C [15] was 82.3%. For the same molecule, the viability, T/C [16] was 105%, the viability, T/C [17] was 143% and the viability, T/C [18] was 131%. The viability, T/C [19] was 122%, the viability, T/C [20] was 92.5% and the viability, T/C [21] was 115%. The viability, T/C [22] was 93.8%, the viability, T/C [23] was 146% and the viability, T/C [24] was 145%. It also gave a viability, T/C [25] of 84.8%, a viability, T/C [26] of 135% and a viability, T/C [27] of 121%. For the same molecule, the viability, T/C [28] was 109%, the viability, T/C [29] was 142% and the viability, T/C [30] was 160%. For the same molecule, the viability, T/C [31] was 119%, the viability, T/C [32] was 104% and the viability, T/C [33] was 104%. For the same molecule, the viability, T/C [34] was 119%, the viability, T/C [35] was 143% and the viability, T/C [36] was 171%.
Molecule `CCc1cc2c(N3CCc4c(cc(Cn5ccnc5)cc4-c4cn(C)nc4C(F)(F)F)C3=O)cc(C)nc2c(OC)n1` + COC1C(OC(N)=O)C(O)C(Oc2ccc3c(O)c(NC(=O)c4ccc(O)c(CC=C(C)C)c4)c(=O)oc3c2C)OC1(C)C has an IC50 (second compound 0.0316 µM) of over 10 µM, an IC50 (second compound 0.1 µM) of over 10 µM and an IC50 (second compound 0.316 µM) of over 10 µM. For the same molecule, the IC50 (second compound 1 µM) was over 10 µM, the IC50 (second compound 3.16 µM) was over 10 µM and the IC50 (second compound 10 µM) was over 10 µM. For the same molecule, the viability, T/C [1] was 112%, the viability, T/C [2] was 101% and the viability, T/C [3] was 114%. For the same molecule, the viability, T/C [4] was 108%, the viability, T/C [5] was 134% and the viability, T/C [6] was 148%. It also gave a viability, T/C [7] of 105%, a viability, T/C [8] of 102% and a viability, T/C [9] of 93.8%. It also gave a viability, T/C [10] of 121%, a viability, T/C [11] of 134% and a viability, T/C [12] of 157%. For the same molecule, the viability, T/C [13] was 85.9%, the viability, T/C [14] was 94.2% and the viability, T/C [15] was 118%. It also gave a viability, T/C [16] of 107%, a viability, T/C [17] of 125% and a viability, T/C [18] of 163%. The viability, T/C [19] was 75.3%, the viability, T/C [20] was 92.8% and the viability, T/C [21] was 102%. It also gave a viability, T/C [22] of 115%, a viability, T/C [23] of 145% and a viability, T/C [24] of 128%. The viability, T/C [25] was 106%, the viability, T/C [26] was 95.7% and the viability, T/C [27] was 108%. For the same molecule, the viability, T/C [28] was 113%, the viability, T/C [29] was 126% and the viability, T/C [30] was 147%. It also gave a viability, T/C [31] of 98.6%, a viability, T/C [32] of 83.8% and a viability, T/C [33] of 82.7%. The viability, T/C [34] was 120%, the viability, T/C [35] was 119% and the viability, T/C [36] was 154%.
With `COc1ccc([C@@H](O)c2cc(-c3ncnc4cc(N5CCOCC5)ccc34)c(F)cc2Cl)nn1` + Cc1cccc(N(C)C(=O)C2C(O)CCN2c2nc(C)cc(C(F)(F)F)c2C#N)c1 the IC50 (second compound 0.0316 µM) was 3.95 µM, the IC50 (second compound 0.1 µM) was 2.46 µM and the IC50 (second compound 0.316 µM) was 2.64 µM. It also gave an IC50 (second compound 1 µM) of 2.7 µM, an IC50 (second compound 3.16 µM) of 3.94 µM and an IC50 (second compound 10 µM) of 5.67 µM. For the same molecule, the viability, T/C [1] was 102%, the viability, T/C [2] was 82.1% and the viability, T/C [3] was 73.5%. It also gave a viability, T/C [4] of 73.9%, a viability, T/C [5] of 47.3% and a viability, T/C [6] of 40.5%. It also gave a viability, T/C [7] of 90.2%, a viability, T/C [8] of 86.5% and a viability, T/C [9] of 81.5%. For the same molecule, the viability, T/C [10] was 71%, the viability, T/C [11] was 43% and the viability, T/C [12] was 39.9%. It also gave a viability, T/C [13] of 101%, a viability, T/C [14] of 112% and a viability, T/C [15] of 91.4%. For the same molecule, the viability, T/C [16] was 62.7%, the viability, T/C [17] was 53.2% and the viability, T/C [18] was 38.9%. It also gave a viability, T/C [19] of 81.8%, a viability, T/C [20] of 94.2% and a viability, T/C [21] of 69.3%. The viability, T/C [22] was 76.6%, the viability, T/C [23] was 45.3% and the viability, T/C [24] was 39.1%. The viability, T/C [25] was 85.3%, the viability, T/C [26] was 80.9% and the viability, T/C [27] was 76%. For the same molecule, the viability, T/C [28] was 66.2%, the viability, T/C [29] was 53.3% and the viability, T/C [30] was 36.5%. It also gave a viability, T/C [31] of 115%, a viability, T/C [32] of 92.4% and a viability, T/C [33] of 89%. It also gave a viability, T/C [34] of 69%, a viability, T/C [35] of 53.7% and a viability, T/C [36] of 44.8%.
